# Measurements as given in patent US6410515B1, “Peptide, a method for its preparation and a pharmaceutical composition containing the peptide” (Immunotech Developments Inc., priority 1995, dated 2002).
# Columns and labels:
# (CBA×C57 B1) F1 mice = assay: Chronic lymphocyte-induced GVHR in irradiated (6 Gy) mice; type: in vivo; settings: for Survival (%) / Survival (mice): after 60 days; for Survival (%): control 60; for Survival (mice): of 10 mice, control 6
# Description: Recipient (CBA×C57 B1) F1 mice were irradiated with the dose of 6 Gy. Two hours after irradiation they were intravenously injected with 6 mln lymphocytes from mesenteric lymph nodes of C57B1 donor mice. […] The peptide was injected intraperitoneally once daily, 5 days a week, until day 21, for a total of 14 injections.
# Indicators of the degree of GVHR development were animal weight and lymphocyte and leukocyte count. The animals were weighed every 3 days. On day 14 and day 28 lymphocyte and leukocyte count were determined using peripheral blood.
# [1] = system: hyperthermic bone marrow cells (CFU-S); assay: Survival of CFU-S of bone marrow after heating at 42° C.; type: cell-based
# Description: Hyperthermia is used in the treatment of various cancer types. When treating leukosis, the damaged bone marrow cells are heated at approximately 41-42° C. in order to kill malignant cells as they are more sensitive to heat. However, some non-malignant stem cells may also be affected. Consequently, the ability of the iDD peptide to protect cells during hyperthermia was tested. A suspension of the bone marrow, previously incubated for 1 hour at 37° C. in the presence of iDD (0.2 μg/4×10^6 cells), was heated for 30 minutes at 42° C. It was then diluted until the necessary concentration was reached and transplanted to the lethally radiated recipients The quantity of the exogenous colonies in the spleen was determined on the ninth day. […] The decrease of the colony formation under the action of iDD is not critical, because its colony-inhibiting action is reversible.
# [2] = Solubility of the peptide; type: physicochemical
# Description: The resulting peptide has the following physical and chemical properties and characteristics: […]
# [3] = system: caryocytes in femoral marrow; assay: Reconstitution of caryocyte numbers in femoral marrow after 4 Gy; type: in vivo, mice; settings: 10 μg/kg IP 2 days before 4 Gy
# Description: The reconstitution of caryocyte numbers and that of hemopoietic progenitors was studied in femoral marrow after irradiation in the dose of 4 Gy and the peptide injection. The test was performed in 12 groups of mice, 6 animals each, and lasted 14 days. Intraperitoneal injections of the peptide in a dose of 10 μg/kg were made 1 day and 2 days before the irradiation.
# [4] = system: patients with cytopenias of immune origin; assay: Clinical study: blood indices and lymphocyte subpopulations; type: in vivo; settings: for CD4+/CD8+ ratio After iDD treatment: normal 0.7-3.3; for % of cells After iDD treatment: CD4−CD8+ T-Suppressers: normal 18.9-47.9; for % of cells After iDD treatment: CD4+CD8− T-helpers: normal 31.4-63.8
# Description: The peptide iDD was given to patients with cytopenias of immune origin and its effect on hemopoietic status was assessed using a number of immunological tests characterising both humoral and cellular immunity.
# The iDD was administered 0.1 mg in a 1 ml dose intranasally (once or twice in divided doses) for 5 days. The regime was repeated after a two week interval. For patients receiving steroids and cytostatics, iDD was administered during the therapy or before the cytostatic treatment.
# Below are cited the examples of indices dynamics in some patients.
# [5] = system: Splenic cells of the mice; assay: Concavalin A-stimulated proliferation of splenic cells (3H-thymidine); type: cell-based, Balb/c mice; settings: 48 h, control 61467
# Description: The biological effect of the D-iGlu-D-Trp (iDD) was studied in Balb/c mice. […] The preparation under study was added at the beginning of the culture. Concavalin A was used as a mitogen, in a final concentration of 2 μg per well. The plates were incubated at 37° C. and in 5% CO2 for 48 h. 3H-thymidine was incorporated into the cells in the amount of […], 24 h prior to the end of the culture. Proliferation of the cells was measured with the use of a scintillation c-counter and expressed in counts per minute (CPM).
substance,measurement,setting,value
H-D-iGlu-D-Trp-OH [iDD],Animal Weight,"(CBA×C57 B1) F1 mice; Dose 10 μ/kg, Day 5, initial average 18.3 g",18.0 grams
same,Animal Weight,"(CBA×C57 B1) F1 mice; Dose 10 μ/kg, Day 8",18.3 grams
same,Animal Weight,"(CBA×C57 B1) F1 mice; Dose 10 μ/kg, Day 12",18.3 grams
same,Animal Weight,"(CBA×C57 B1) F1 mice; Dose 10 μ/kg, Day 14",17.8 grams
same,Animal Weight,"(CBA×C57 B1) F1 mice; Dose 10 μ/kg, Day 19",17.6 grams
same,Animal Weight,"(CBA×C57 B1) F1 mice; Dose 10 μ/kg, Day 21",17.8 grams
same,Animal Weight,"(CBA×C57 B1) F1 mice; Dose 10 μ/kg, Day 23",18.6 grams
same,Animal Weight,"(CBA×C57 B1) F1 mice; Dose 10 μ/kg, Day 26",18.9 grams
same,Animal Weight,"(CBA×C57 B1) F1 mice; Dose 10 μ/kg, Day 30",18.9 grams
same,Animal Weight,"(CBA×C57 B1) F1 mice; Dose 10 μ/kg, Day 33",18.9 grams
same,Animal Weight,"(CBA×C57 B1) F1 mice; Dose 10 μ/kg, Day 40",19.2 grams
same,Animal Weight,"(CBA×C57 B1) F1 mice; Dose 10 μ/kg, Day 47",19.9 grams
same,Animal Weight,"(CBA×C57 B1) F1 mice; Dose 10 μ/kg, Day 54",20.0 grams
same,Animal Weight,"(CBA×C57 B1) F1 mice; Dose 10 μ/kg, Day 60",20.0 grams
same,Animal Weight,"(CBA×C57 B1) F1 mice; Dose 100 μ/kg, Day 5, initial average 18.3 g",18.6 grams
same,Animal Weight,"(CBA×C57 B1) F1 mice; Dose 100 μ/kg, Day 8",18.5 grams
same,Animal Weight,"(CBA×C57 B1) F1 mice; Dose 100 μ/kg, Day 12",18.6 grams
same,Animal Weight,"(CBA×C57 B1) F1 mice; Dose 100 μ/kg, Day 14",19.0 grams
same,Animal Weight,"(CBA×C57 B1) F1 mice; Dose 100 μ/kg, Day 19",19.0 grams
same,Animal Weight,"(CBA×C57 B1) F1 mice; Dose 100 μ/kg, Day 21",19.3 grams
same,Animal Weight,"(CBA×C57 B1) F1 mice; Dose 100 μ/kg, Day 23",19.6 grams
same,Animal Weight,"(CBA×C57 B1) F1 mice; Dose 100 μ/kg, Day 26",19.6 grams
same,Animal Weight,"(CBA×C57 B1) F1 mice; Dose 100 μ/kg, Day 30",19.7 grams
same,Animal Weight,"(CBA×C57 B1) F1 mice; Dose 100 μ/kg, Day 33",19.7 grams
same,Animal Weight,"(CBA×C57 B1) F1 mice; Dose 100 μ/kg, Day 40",20.0 grams
same,Animal Weight,"(CBA×C57 B1) F1 mice; Dose 100 μ/kg, Day 47",20.3 grams
same,Animal Weight,"(CBA×C57 B1) F1 mice; Dose 100 μ/kg, Day 54",20.4 grams
same,Animal Weight,"(CBA×C57 B1) F1 mice; Dose 100 μ/kg, Day 60",20.4 grams
same,Animal Weight,"(CBA×C57 B1) F1 mice; Dose 1000 μ/kg, Day 5, initial average 18.3 g",19.1 grams
same,Animal Weight,"(CBA×C57 B1) F1 mice; Dose 1000 μ/kg, Day 8",19.1 grams
same,Animal Weight,"(CBA×C57 B1) F1 mice; Dose 1000 μ/kg, Day 12",18.9 grams
same,Animal Weight,"(CBA×C57 B1) F1 mice; Dose 1000 μ/kg, Day 14",18.9 grams
same,Animal Weight,"(CBA×C57 B1) F1 mice; Dose 1000 μ/kg, Day 19",19.4 grams
same,Animal Weight,"(CBA×C57 B1) F1 mice; Dose 1000 μ/kg, Day 21",19.6 grams
same,Animal Weight,"(CBA×C57 B1) F1 mice; Dose 1000 μ/kg, Day 23",19.8 grams
same,Animal Weight,"(CBA×C57 B1) F1 mice; Dose 1000 μ/kg, Day 26",19.8 grams
same,Animal Weight,"(CBA×C57 B1) F1 mice; Dose 1000 μ/kg, Day 30",20.0 grams
same,Animal Weight,"(CBA×C57 B1) F1 mice; Dose 1000 μ/kg, Day 33",20.0 grams
same,Animal Weight,"(CBA×C57 B1) F1 mice; Dose 1000 μ/kg, Day 40",20.2 grams
same,Animal Weight,"(CBA×C57 B1) F1 mice; Dose 1000 μ/kg, Day 47",20.5 grams
same,Animal Weight,"(CBA×C57 B1) F1 mice; Dose 1000 μ/kg, Day 54",20.1 grams
same,Animal Weight,"(CBA×C57 B1) F1 mice; Dose 1000 μ/kg, Day 60",20.4 grams
same,Survival (%),(CBA×C57 B1) F1 mice; Dose 10 μ/kg,90%
same,Survival (mice),(CBA×C57 B1) F1 mice; Dose 10 μ/kg,9
same,Survival (%),(CBA×C57 B1) F1 mice; Dose 100 μ/kg,90%
same,Survival (mice),(CBA×C57 B1) F1 mice; Dose 100 μ/kg,9
same,Survival (%),(CBA×C57 B1) F1 mice; Dose 1000 μ/kg,80%
same,Survival (mice),(CBA×C57 B1) F1 mice; Dose 1000 μ/kg,8
same,Lymphocyte and leukocyte counts versus control mice,"(CBA×C57 B1) F1 mice; peripheral blood, day 14 and day 28, Table 20 not given",significantly higher
same,Medium quantity of colonies,"[1]; iDD 0.2 μg/4×10^6 cells + heating 30 minutes at 42° C., control + heating 5.9 ± 0.6",6.9 ± 0.6
same,Medium quantity of colonies,"[1]; iDD 0.2 μg/4×10^6 cells, no heating, control 11.4 ± 0.4",6.0 ± 0.6
same,"Survival of CFU-S, %","[1]; iDD + heating, control + heating 51.7",115%
same,"Survival of CFU-S, %","[1]; iDD, no heating (reference)",100%
same,Solubility in alcohol,[2]; alcohol,moderately soluble
same,Solubility in chloroform,[2]; chloroform,insoluble
same,Solubility in water,[2]; water,readily soluble
same,Caryocyte count,"[3]; 4 days after irradiation, 4 Gy alone 9,0 ± 0,3","12,8 ± 0,9 × 10^6"
same,Caryocyte count,"[3]; 7 days after irradiation, 4 Gy alone 10,6 ± 0,8","21,3 ± 2,1 × 10^6"
same,Caryocyte count,"[3]; 11 days after irradiation, 4 Gy alone 17,0 ± 0,6","17,3 ± 1,0 × 10^6"
same,Caryocyte count,"[3]; 14 days after irradiation, 4 Gy alone 17,0 ± 1,2","20,5 ± 0,5 × 10^6"
same,"Absolute count after iDD: CD3−CD16,56+ nat. killers","[4]; Patient A, before 0.164",0.108 bln/l
same,Absolute count after iDD: CD3+HLA−DR+ activated T-lymphocytes,"[4]; Patient A, before 0.388",0.251 bln/l
same,Absolute count after iDD: CD4−CD8+ T-Suppressers,"[4]; Patient A, before 0.657",0.305 bln/l
same,Absolute count after iDD: CD4+CD8− T-helpers,"[4]; Patient A, before 0.769",0.522 bln/l
same,Absolute count after iDD: CD45++CD14− lymphocytes,"[4]; Patient A, before 1.6",0.9 bln/l
same,Haemoglobin content,"[4]; Patient A, iDD, no steroids",106 g/L
same,CD4+/CD8+ ratio After iDD treatment,"[4]; Patient A, test sample 1.2",1.7
same,% of cells After iDD treatment: CD45+CD14+ monocytes,"[4]; Patient A, test sample 6.1",3.3%
same,"% of cells After iDD treatment: CD3−CD16,56+ nat. killers","[4]; Patient A, test sample 10.3",12.0%
same,% of cells After iDD treatment: CD3+HLA−DR+ activated T-lymphocytes,"[4]; Patient A, test sample 24.3, normal 2.8-17.3",27.9%
same,% of cells After iDD treatment: CD45++CD14− lymphocytes,"[4]; Patient A, test sample 33.2",34.8%
same,% of cells After iDD treatment: CD4−CD8+ T-Suppressers,"[4]; Patient A, test sample 41.1",33.9%
same,% of cells After iDD treatment: CD45+CD14− granulocytes,"[4]; Patient A, test sample 41.4",48.5%
same,% of cells After iDD treatment: CD4+CD8− T-helpers,"[4]; Patient A, test sample 48.1",58.0%
same,"Absolute count after iDD: CD3−CD16,56+ nat. killers","[4]; Patient K, before 0.057",0.054 bln/l
same,Absolute count after iDD: CD4+CD8− T-helpers,"[4]; Patient K, before 0.614",0.393 bln/l
same,Absolute count after iDD: CD4−CD8+ T-Suppressers,"[4]; Patient K, before 0.712",0.510 bln/l
same,Absolute count after iDD: CD45++CD14− lymphocytes,"[4]; Patient K, before 1.68",1.09 bln/l
same,CD4+/CD8+ ratio After iDD treatment,"[4]; Patient K, test sample 0.8",0.8
same,"% of cells After iDD treatment: CD3−CD16,56+ nat. killers","[4]; Patient K, test sample 3.4, normal 4.8-26.7",5.0%
same,% of cells After iDD treatment: CD45+CD14+ monocytes,"[4]; Patient K, test sample 5.3",5.2%
same,% of cells After iDD treatment: CD45++CD14− lymphocytes,"[4]; Patient K, test sample 26.0",20.2%
same,% of cells After iDD treatment: CD4+CD8− T-helpers,"[4]; Patient K, test sample 36.3",36.1%
same,% of cells After iDD treatment: CD4−CD8+ T-Suppressers,"[4]; Patient K, test sample 44.5",46.8%
same,% of cells After iDD treatment: CD45+CD14− granulocytes,"[4]; Patient K, test sample 55.8",74.7%
same,"CPMI (proliferation, 3H-thymidine)",[5]; Preparation dose 1 μcg/ml,68594 CPM
same,"CPMI (proliferation, 3H-thymidine)",[5]; Preparation dose 5 μcg/ml,63428 CPM
same,"CPMI (proliferation, 3H-thymidine)",[5]; Preparation dose 10 μcg/ml,20043 CPM
same,"CPMI (proliferation, 3H-thymidine)",[5]; Preparation dose 20 μcg/ml,13222 CPM
